These results are taken from patent US4215069A, “Arylthiovinylcyclopropanecarboxylate intermediates” (FMC Corporation, priority 1979, dated 1980).

For data set [1] the following is noted: prior art, Elliott, et al.; cited from earlier work.
The test system of data set [2] is Mexican bean beetle (Epilachna varivestis Muls.). Nature of the data set: Initial contact activity against Mexican bean beetle (percent kill). Particulars: 72 hours exposure, read-out: Percent Kill MBB, initial activity. The class given is in vivo. The protocol: (§1) The test compound was dissolved in a small amount of acetone, and the acetone solution was dispersed in water containing one drop of isooctylphenyl polyethoxyethanol to make a solution having 1250 ppm (w/w) active ingredient. Aliquots of this solution were diluted with an appropriate amount of water to provide solutions containing various concentrations of active ingredient. Test organisms and techniques were as follows: the activity against Mexican bean beetle (Epilachna varivestis Muls.) and southern armyworm (Spodoptera eridania [Cram.]) was evaluated by dipping the leaves of pinto bean plants into the test solution and infesting the leaves with the appropriate immature-form insects when the foliage had dried. The activity against the pea aphid (Acyrthosiphon pisum [Harris]) was evaluated on broad bean plants whose leaves were dipped before infestation with adult aphids. The activity against twospotted spider mites (Tetranychus urticae Koch) was evaluated on pinto bean plants whose leaves were dipped after infestation with adult mites. The activity against the milkweed bug (Oncopeltus faciatus [Dallas]) was evaluated by spraying the test solutions into glass dishes or jars containing the adult insects. Following application of the compound and infestation the tests were maintained in a holding room at 80° F. and 50% relative humidity for an exposure period of 72 hours. At the end of this time the dead and living insects or mites were counted and the percent kill was calculated. Results of these tests are summarized in Table I. Most of the compounds tested were active against all the insects.

The subject of a further data set is Southern armyworm. Description: 7-day residual contact activity against southern armyworm (percent kill). The class given is in vivo. As to conditions: Spodoptera eridania, 168 h, treated surface aged seven days in light and air, read-out: Percent Kill AW, 7-day residual activity. As to the method: as §1
(§2) The residual contact activity of certain of the compounds was determined on the same organisms using the techniques described above, except that in each case the treated surface was allowed to dry and was exposed to normal light and air for seven days before introduction of the mites or insects. The seven day residual activity was minimal for the mite but substantial against the remaining organisms. Again, the remarkable activity of some of these compounds against milkweed bug and Mexican bean beetle was noted.

Another data set relates to Mexican bean beetle. Nature of the data set: 7-day residual contact activity against Mexican bean beetle (percent kill). The class given is in vivo. As to conditions: Epilachna varivestis, 168 h, treated surface aged seven days in light and air, read-out: Percent Kill MBB, 7-day residual activity. As to the method: as §1, §2
For the next data set, the system named is Pea aphid. Nature of the data set: 7-day residual contact activity against pea aphid (percent kill). Format: in vivo. As to conditions: Acyrthosiphon pisum, 168 h, treated surface aged seven days in light and air, read-out: Percent Kill PA, 7-day residual activity. As to the method: as §1, §2
Data set [3] relates to milkweed bug (Oncopeltus faciatus [Dallas]). Description: Initial contact activity against milkweed bug (percent kill). Particulars: 72 hours exposure, read-out: Percent Kill MWB, initial activity. Format: in vivo. As to the method:
as §1

The subject of another data set is Twospotted spider mite. Nature of the data set: 7-day residual contact activity against twospotted spider mite (percent kill). Format: in vivo. As to conditions: Tetranychus urticae, 168 h, treated surface aged seven days in light and air, read-out: Percent Kill SM, 7-day residual activity. As to the method: as §1, §2
The test system of data set [4] is twospotted spider mites (Tetranychus urticae Koch). Nature of the data set: Initial contact activity against twospotted spider mite (percent kill). The class given is in vivo. Particulars: 72 hours exposure, read-out: Percent Kill SM, initial activity. The protocol: as §1
Data set [5] deals with pea aphid (Acyrthosiphon pisum [Harris]). Nature of the data set: Initial contact activity against pea aphid (percent kill). Particulars: 72 hours exposure, read-out: Percent Kill PA, initial activity. The class given is in vivo. The protocol: as §1
Data set [6] relates to southern armyworm (Spodoptera eridania [Cram.]). Description: Initial contact activity against southern armyworm (percent kill). Particulars: 72 hours exposure, read-out: Percent Kill AW, initial activity. Format: in vivo. As to the method: as §1
The next data set concerns Milkweed bug. Nature of the data set: 7-day residual contact activity against milkweed bug (percent kill). The class given is in vivo, Oncopeltus faciatus. As to conditions: Oncopeltus fasciatus, 168 h, treated surface aged seven days in light and air, read-out: Percent Kill MWB, 7-day residual activity. The protocol:
as §1, §2

On to `CC1(C)C(C=C(Cl)Cl)C1C(=O)OCc1cccc(Oc2ccccc2)c1` (stereo not drawn) [3-phenoxybenzyl 3-(β,β-dichlorovinyl)-2,2-dimethylcyclopropanecarboxylate], for which the “resistance to photo-oxidative degradation in words” value in data set [1] was “remarkably resistent to photo-oxidative degradation”.
For `CC1(C)C(C=C(Cl)Sc2ccccc2)C1C(=O)OCc1cccc(Oc2ccccc2)c1` (mixture of isomers) [Example 4, 3-phenoxybenzyl cis,trans-3-[2-(E,Z)chloro-2-phenylthioethenyl]-2,2-dimethylcyclopropanecarboxylate], the figures for the mortality at 5 ppm in [2] (5 ppm) and in [6] (5 ppm) were 100% and 11%, respectively. Moreover, the results for the mortality at 20 ppm in data set [2] (20 ppm) and in data set [6] (20 ppm) were 94% and 0%, respectively. For the same compound, the mortality at 78 ppm in data set [2] (78 ppm) was found to be 100%; in data set [3] (78 ppm), 10%; in data set [5] (78 ppm) it was 75%; in data set [6] (78 ppm), 68%. Also, the mortality at 312 ppm turned out to be 100% in [2] (312 ppm); 90% in data set [3] (312 ppm); 31% in [4] (312 ppm); 100% in data set [5] (312 ppm); 89% in data set [6] (312 ppm). The mortality at 1250 ppm was determined as 95% in data set [2] (1250 ppm); 100% in data set [3] (1250 ppm); 42% in [4] (1250 ppm); 100% in data set [5] (1250 ppm); 100% in [6] (1250 ppm). In addition, the activity at 20 ppm was 0% with Southern armyworm (20 ppm) and 89% in the data set on Mexican bean beetle (20 ppm). Besides, the results for the activity at 78 ppm in the data set on Southern armyworm (78 ppm) and in the data set on Mexican bean beetle (78 ppm) were 5% and 100%, respectively. The activity at 312 ppm worked out at 55% with Southern armyworm (312 ppm), 100% in the data set with Mexican bean beetle (312 ppm), 0% in the data set with Pea aphid (312 ppm) and 20% with Milkweed bug (312 ppm). For the same compound, the activity at 1250 ppm in the data set with Southern armyworm (1250 ppm) was 95%; in the data set on Mexican bean beetle (1250 ppm), 100%; in the data set on Pea aphid (1250 ppm), 85%; with Twospotted spider mite, 0%; in the data set with Milkweed bug (1250 ppm), 100%.
